In article PMC8668980, “Development of a versatile HPLC-based method to evaluate the activation status of small GTPases” (The Journal of Biological Chemistry, 2021):

Key:
GST-RHEB [1] = biological target: T1, GST-RHEB (Homo sapiens, UniProt Q15382, P37L); assay: [3H]GDP-dissociation assay, filter binding; conditions: labelled compound; 5 μM [3H]GDP preload with 10 mM EDTA, chase 200 μM GTPγS; 5 mM MgCl2, pH 7.5, 30 °C
T1 construct: residues 1-180, N-terminal GST fusion (pCold GST) kept, E. coli, glutathione-Sepharose purified
T1 sequence (Q15382 1-180 P37L): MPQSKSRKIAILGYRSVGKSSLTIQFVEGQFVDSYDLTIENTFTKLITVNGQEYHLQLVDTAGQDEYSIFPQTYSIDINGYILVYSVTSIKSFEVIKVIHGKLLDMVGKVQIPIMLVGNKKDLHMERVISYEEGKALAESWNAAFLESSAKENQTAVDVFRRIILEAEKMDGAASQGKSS

DIRAS1 = biological target: T2, DIRAS1 (Homo sapiens, UniProt O95057); assay: IP-RP-HPLC of nucleotide co-purified with Flag protein from HeLa; format: cell-based; conditions: nucleotide loaded in cells; 5 mM then 1 mM MgCl2 washes
T2 construct: Flag-tagged, dox-inducible in HeLa, anti-Flag immunopurified
T2 sequence (O95057 1-195): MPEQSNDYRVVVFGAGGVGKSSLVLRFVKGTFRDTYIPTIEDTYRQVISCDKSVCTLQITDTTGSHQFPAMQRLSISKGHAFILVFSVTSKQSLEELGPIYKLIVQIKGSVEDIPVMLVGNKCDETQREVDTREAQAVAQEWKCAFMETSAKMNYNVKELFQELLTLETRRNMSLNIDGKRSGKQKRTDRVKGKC

GST-RHEB [2] = biological target: T3, GST-RHEB (Homo sapiens, UniProt Q15382); assay: [3H]GDP-dissociation assay, filter binding; conditions: labelled compound; 5 μM [3H]GDP preload with 10 mM EDTA, chase 200 μM GTPγS; 5 mM MgCl2, pH 7.5, 30 °C
T3 construct: residues 1-180, N-terminal GST fusion (pCold GST) kept, E. coli, glutathione-Sepharose purified
T3 sequence (Q15382 1-180): as the sequence (Q15382 1-180 P37L) above, with L37P counted along it

DIRAS2 = biological target: T4, DIRAS2 (Homo sapiens, UniProt Q96HU8); assay: IP-RP-HPLC of nucleotide co-purified with Flag protein from HeLa; format: cell-based; conditions: nucleotide loaded in cells; 5 mM then 1 mM MgCl2 washes
T4 construct: Flag-tagged, dox-inducible in HeLa, anti-Flag immunopurified
T4 sequence (Q96HU8 1-196): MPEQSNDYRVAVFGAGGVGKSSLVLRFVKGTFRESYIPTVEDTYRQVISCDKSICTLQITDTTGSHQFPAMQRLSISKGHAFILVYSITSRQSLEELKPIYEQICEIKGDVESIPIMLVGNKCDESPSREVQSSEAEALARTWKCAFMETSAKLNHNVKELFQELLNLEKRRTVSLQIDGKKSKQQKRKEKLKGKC

HRAS = biological target: T5, HRAS (Homo sapiens, UniProt P01112); assay: as above; format: cell-based; conditions: nucleotide loaded in cells; 5 mM then 1 mM MgCl2 washes
T5 construct: Flag-tagged, dox-inducible in HeLa, anti-Flag immunopurified
T5 sequence (P01112 2-186): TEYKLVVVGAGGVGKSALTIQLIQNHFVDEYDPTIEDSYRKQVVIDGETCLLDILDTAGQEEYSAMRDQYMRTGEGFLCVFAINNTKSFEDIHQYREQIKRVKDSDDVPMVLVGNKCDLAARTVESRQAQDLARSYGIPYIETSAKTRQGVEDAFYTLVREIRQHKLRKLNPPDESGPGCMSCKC

Flag-RHEB [3] = biological target: T6, Flag-RHEB (Homo sapiens, UniProt Q15382); assay: as above; format: cell-based; conditions: nucleotide loaded in cells; 5 mM then 1 mM MgCl2 washes
T6 construct: Flag-tagged, dox-inducible in HeLa, anti-Flag immunopurified
T6 sequence (Q15382 1-181): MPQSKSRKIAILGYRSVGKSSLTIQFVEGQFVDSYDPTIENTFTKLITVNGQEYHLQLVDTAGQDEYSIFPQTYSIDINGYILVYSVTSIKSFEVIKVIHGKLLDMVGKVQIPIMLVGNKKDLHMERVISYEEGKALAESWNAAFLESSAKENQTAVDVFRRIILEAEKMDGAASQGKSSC

Flag-RHEB [4] = biological target: T7, Flag-RHEB (Homo sapiens, UniProt Q15382, S68P); assay: as above; format: cell-based; conditions: nucleotide loaded in cells; 5 mM then 1 mM MgCl2 washes
T7 construct: Flag-tagged, dox-inducible in HeLa, anti-Flag immunopurified
T7 sequence (Q15382 1-181 S68P): as the sequence (Q15382 1-181) above, with S68P counted along it

Flag-RHEB [5] = biological target: T8, Flag-RHEB (Homo sapiens, UniProt Q15382, P37L); assay: as above; format: cell-based; conditions: nucleotide loaded in cells; 5 mM then 1 mM MgCl2 washes
T8 construct: Flag-tagged, dox-inducible in HeLa, anti-Flag immunopurified
T8 sequence (Q15382 1-181 P37L): as the sequence (Q15382 1-181) above, with P37L counted along it

Flag-RHEB [6] = biological target: T9, Flag-RHEB (Homo sapiens, UniProt Q15382, Q64L); assay: as above; format: cell-based; conditions: nucleotide loaded in cells; 5 mM then 1 mM MgCl2 washes
T9 construct: Flag-tagged, dox-inducible in HeLa, anti-Flag immunopurified
T9 sequence (Q15382 1-181 Q64L): as the sequence (Q15382 1-181) above, with Q64L counted along it

GST-RHEB [7] = biological target: T10, GST-RHEB (Homo sapiens, UniProt Q15382, S68P); assay: single-turnover GTPase assay of bound GTP by IP-RP-HPLC; format: biochemical; conditions: Flag-TSC1/2 beads (GAP); 5 mM MgCl2, pH 7.5, 30 °C
T10 construct: residues 1-180, N-terminal GST fusion (pCold GST) kept, E. coli, glutathione-Sepharose purified
T10 sequence (Q15382 1-180 S68P): as the sequence (Q15382 1-180 P37L) above, with L37P, S68P counted along it

GST-RHEB [8] = biological target: T3, GST-RHEB; assay: […]GTPγS filter binding time course; conditions: labelled compound; 5 μM [35S]GTPγS, 5 mM MgCl2, pH 7.5, 30 °C

SMILES | [3H]GDP-dissociation assay, filter binding (GST-RHEB [1]) | IP-RP-HPLC of nucleotide co-purified with Flag protein from HeLa (DIRAS1) | [3H]GDP-dissociation assay, filter binding (GST-RHEB [2]) | IP-RP-HPLC of nucleotide co-purified with Flag protein from HeLa (DIRAS2) | IP-RP-HPLC of nucleotide co-purified with Flag protein from HeLa (HRAS) | IP-RP-HPLC of nucleotide co-purified with Flag protein from HeLa (Flag-RHEB [3]) | IP-RP-HPLC of nucleotide co-purified with Flag protein from HeLa (Flag-RHEB [4]) | IP-RP-HPLC of nucleotide co-purified with Flag protein from HeLa (Flag-RHEB [5]) | IP-RP-HPLC of nucleotide co-purified with Flag protein from HeLa (Flag-RHEB [6]) | single-turnover GTPase assay of bound GTP by IP-RP-HPLC (GST-RHEB [7]) | [35S]GTPγS filter binding time course (GST-RHEB [8])
Nc1nc2c(ncn2[C@@H]2O[C@H](COP(=O)(O)OP(=O)(O)O)[C@@H](O)[C@H]2O)c(=O)[nH]1 [GDP] | the dissociation rates of the WT and P37L proteins were comparable | We could reproducibly quantify the amount of GDP and GTP bound to each small GTPase | the dissociation rates of the WT and P37L proteins were comparable | We could reproducibly quantify the amount of GDP and GTP bound to each small GTPase | We could reproducibly quantify the amount of GDP and GTP bound to each small GTPase | Representative chromatogram of guanine nucleotides bound to Flag-RHEB/WT in HeLa cells |  |  |  |  | 
Nc1nc2c(ncn2[C@@H]2O[C@H](COP(=O)(O)OP(=O)(O)OP(=O)(O)O)[C@@H](O)[C@H]2O)c(=O)[nH]1 [GTP] |  | We could reproducibly quantify the amount of GDP and GTP bound to each small GTPase |  | We could reproducibly quantify the amount of GDP and GTP bound to each small GTPase | We could reproducibly quantify the amount of GDP and GTP bound to each small GTPase |  | both RHEB/P37L and RHEB/S68P showed increases in their GTP-bound forms | both RHEB/P37L and RHEB/S68P showed increases in their GTP-bound forms | marked increase in the ratio of the GTP-bound form of RHEB/Q64L compared with RHEB/WT | it weakly but significantly promoted that of GST-RHEB/S68P | 
Nc1nc2c(ncn2[C@@H]2O[C@H](COP(=O)(O)OP(=O)(O)OP(O)(O)=S)[C@@H](O)[C@H]2O)c(=O)[nH]1 [GTPγS] |  |  |  |  |  |  |  |  |  |  | GTPγS-binding rate of RHEB/S68P was enhanced compared with that of RHEB/WT and RHEB/P37L
